Measured values reported in paper PMC8151276, “An Integrated Approach toward NanoBRET Tracers for Analysis of GPCR Ligand Engagement” (Molecules, 2021).

Biological target: T1, ADRB3 (Homo sapiens, UniProt P13945)
T1 construct: purchased Promega (in-house HiBiT-GPCR construct library, NanoBRET)
Test: NanoBRET screen HiBiT-ADRB3 in HEK293
Assay type: binding
Protocol: Each tracer candidate was screened across the entire library of HiBiT-GPCR constructs using NanoBRET as the detection modality. As depicted in Figure 4A, the specificity of interactions was evaluated through decrease in BRET due to competitive displacement of a bound tracer by excess parental compound. Each tracer was analyzed for binding to each HiBiT-GPCR fusion in the absence and in the presence of competing parental compound. Briefly, HEK293 cells were transfected with HiBiT-GPCR constructs diluted into promoterless DNA to reduce expression and maximize translocation to the cell surface. Each tracer candidate was then screened at concentrations of 1 μM and 0.1 μM across cells expressing these fusions. Cells were treated for 1.5 h with tracer either alone or in the presence of 20 μM competing parental compound (i.e., control). BRET was measured upon addition of purified LgBiT and subsequent complementation with HiBiT genetically fused to a GPCR. The specificity of interactions was assessed through a decrease in BRET signal due to competitive displacement of the bound tracer. To further gauge the robustness of these interactions, the fold response over the control (i.e., BRETtracer/BRETcontrol) was calculated. We chose a 1.5-fold response, which translates to ≥7-fold signal over noise as the minimal threshold required to score an interaction as positive.
HiBiT-GPCR DNA constructs were diluted in 10 mM Tris pH 8 to a final concentration of 0.01 μg/μL, arrayed in 96-well plates and stored at −20 °C. For transfection, HEK293 cells were suspended in Opti-MEM (without phenol red) supplemented with 2% fetal bovine serum (Seradigm) and 100 units/mL penicillin–streptomycin (Gibco) at a final concentration of 220,000 cells/mL and dispensed into white 96-well plates at 90 μL/well. Subsequent transfections and screens were carried using an Agilent Bravo Automated Liquid Handling Platform. First, the 96-well HiBiT DNA arrays were diluted 25-fold in Opti-MEM (without serum or phenol red) to a final concentration of 0.0004 μg/μL and 20 μL of the diluted DNAs were transferred into new 96-well plates. Next, promoterless carrier DNA (1 μg/μL) was diluted 25-fold (0.04 μg/μL) and then dispensed into the diluted arrays at 20 μL/well. Following brief mixing, Viafect transfection reagent (Promega) diluted 16-fold into Opti-MEM was dispensed into the plates at 40 μL/well. After mixing by pipetting, plates were incubated for 10 min on the pipetting station deck. The DNA-transfection reagent complexes were then added to plates containing cells. To facilitate the screen, 10 μL of DNA-transfection reagent complexes were added in duplicates to the top 4 and bottom 4 rows, resulting in two identical 48-well arrays per plate. Plates with transfected cells were incubated for 18–20 h at 37 °C/5% CO2. A screen of each tracer across the entire library using two different concentrations requires duplicate plates of transfected cells. Depending on the number of tracers being screened, transfections can be scaled up using the same ratios. The next day, for each tracer, four 20× screening solutions in tracer dilution buffer (Promega) were prepared: two duplicates at final concentration of 20 μM and two duplicates at a final concentration of 2 μM. […] The four resulting solutions were diluted 4-fold in Opti-MEM without serum or phenol red to generate 5× solutions (5 µM and 0.5 µM tracer +/− 100 μM competing compound). To screen the library, a BioTek MultiFlo FX liquid dispenser was used to dispense 22.5 µL of tracer solution to the top 4 rows and 22.5 µL tracer + competing compound solution to the 4 bottom rows. Plates were briefly mixed on an orbital shaker and incubated for 1.5 h at room temperature. […] Plates were briefly mixed on an orbital shaker and incubated for 15 min to allow complementation.

T1 sequence (P13945 whole entry): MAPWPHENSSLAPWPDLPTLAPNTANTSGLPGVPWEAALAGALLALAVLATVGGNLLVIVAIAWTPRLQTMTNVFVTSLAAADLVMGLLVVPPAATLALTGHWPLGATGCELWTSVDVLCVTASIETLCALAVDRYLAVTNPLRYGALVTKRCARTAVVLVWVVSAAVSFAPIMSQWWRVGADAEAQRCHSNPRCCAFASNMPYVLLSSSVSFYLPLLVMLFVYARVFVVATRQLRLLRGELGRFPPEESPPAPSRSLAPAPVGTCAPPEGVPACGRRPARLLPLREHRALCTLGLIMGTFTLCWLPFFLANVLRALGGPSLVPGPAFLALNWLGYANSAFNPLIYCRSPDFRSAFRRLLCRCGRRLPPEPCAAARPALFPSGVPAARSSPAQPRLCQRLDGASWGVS

## CCOC(=O)c1cc(C#N)c(N2CCC(C(=O)NS(=O)(=O)Cc3ccccc3/C=C/C(=O)NCCNC(=O)CCc3ccc4n3[B-](F)(F)[N+]3=C(c5ccc[nH]5)C=CC3=C4)CC2)nc1C [AZD1283-1-NB590]
ADRB3, 0.1μM
  NanoBRET Fold Response: 1.09
ADRB3, 1μM
  NanoBRET Fold Response: 1.04

## N#CN/C(=N\CCNC(=O)c1ccc(N)cc1)NCCCOc1cccc(CN2CCCCC2)c1 [Aminopotentidine (unmodified)]
ADRB3, other tracers/Aminopotentidine (unmodified), 0.1μM
  NanoBRET Fold Response: 1.02
ADRB3, other tracers/Aminopotentidine (unmodified), 1μM
  NanoBRET Fold Response: 1.10

## N#CN=C(NCCCOc1cccc(CN2CCCCC2)c1)NCCNC(=O)CCOCCOCCOCCOCCNC(=O)CCc1ccc2n1[B-](F)(F)[N+]1=C(c3ccc[nH]3)C=CC1=C2 [Aminopotentidine-2-NB590]
ADRB3, tracer 0.1μM
  NanoBRET Fold Response: 1.00
ADRB3, tracer 1μM
  NanoBRET Fold Response: 1.01

## CN(C)CCC=C1c2ccccc2CCc2ccc(C(=O)NCCNC(=O)CCOCCOCCOCCOCCNC(=O)CCc3ccc4n3[B-](F)(F)[N+]3=C(c5ccc[nH]5)C=CC3=C4)cc21 [Amitriptyline-a-2-NB590]
Tracer at 0.1μM
  NanoBRET Fold Response: 0.95
Tracer at 1μM
  NanoBRET Fold Response: 0.99

## CN(C)CCC=C1c2ccccc2CCc2ccc(C(=O)NCCNC(=O)CCOCCOCCOCCOCCNC(=O)CCc3ccc4n3[B-](F)(F)[N+]3=C(c5ccc[nH]5)C=CC3=C4)cc21 [Amitriptyline-b-2-NB590]
Tracer at 0.1μM, listed as amitriptyline-b-2-NB590
  NanoBRET Fold Response: 1.15
Tracer at 1μM, listed as amitriptyline-b-2-NB590
  NanoBRET Fold Response: 1.02

## CN(CCC=C1c2ccccc2CCc2ccccc21)C(=O)CCOCCOCCOCCOCCNC(=O)CCc1ccc2n1[B-](F)(F)[N+]1=C(c3ccc[nH]3)C=CC1=C2 [Amitriptyline-e-2-NB590]
Tracer at 1μM
  NanoBRET Fold Response: 1.01

## COc1ccc2c(n1)c(CCNC(C)=O)cn2CCNC(=O)CCc1ccc2n1[B-](F)(F)[N+]1=C(c3ccc[nH]3)C=CC1=C2 [Azamelatonin-1-NB590]
0.1μM tracer
  NanoBRET Fold Response: 1.01
1μM tracer
  NanoBRET Fold Response: 1.06

## COc1ccc2[nH]c(-c3ccc(CNC(=O)CCOCCOCCOCCOCCNC(=O)CCc4ccc5n4[B-](F)(F)[N+]4=C(c6ccc[nH]6)C=CC4=C5)cc3)c(CCNC(C)=O)c2n1 [AzomelatoninICO9-2-NB590]
0.1μM tracer
  NanoBRET Fold Response: 1.00
1μM tracer
  NanoBRET Fold Response: 1.11

## O=C(CCOCCOCCOCCOCCNC(=O)CCc1ccc2n1[B-](F)(F)[N+]1=C(c3ccc[nH]3)C=CC1=C2)NCCCN1CCN(C2=Nc3cc(Cl)ccc3Nc3ccccc32)CC1 [Clozapine-a-2-NB590]
ADRB3, 0.1μM tracer
  NanoBRET Fold Response: 0.97
ADRB3, 1μM tracer
  NanoBRET Fold Response: 0.99

## CN1CCN(C2=Nc3cc(Cl)ccc3Nc3ccc(CNC(=O)CCOCCOCCOCCOCCNC(=O)CCc4ccc5n4[B-](F)(F)[N+]4=C(c6ccc[nH]6)C=CC4=C5)cc32)CC1 [Clozapine-b-2-NB590]
ADRB3, 0.1μM tracer
  NanoBRET Fold Response: 1.01
ADRB3, 1μM tracer
  NanoBRET Fold Response: 0.98

## CN1CCN(C2=Nc3cc(Cl)ccc3N(CC(=O)NCCOCCOCCOCCOCCNC(=O)CCc3ccc4n3[B-](F)(F)[N+]3=C(c5ccc[nH]5)C=CC3=C4)c3ccccc32)CC1 [Clozapine-c-2-NB590]
ADRB3, 0.1μM tracer
  NanoBRET Fold Response: 0.98
ADRB3, 1μM tracer
  NanoBRET Fold Response: 0.96

## O=C(CCOCCOCCOCCOCCNC(=O)CCc1ccc2n1[B-](F)(F)[N+]1=C(c3ccc[nH]3)C=CC1=C2)NCCCN1CCN(C2=Nc3ccccc3Oc3ccc(Cl)cc32)CC1 [Loxapine-a-2-NB590]
ADRB3, tracer 0.1μM
  NanoBRET Fold Response: 1.01
ADRB3, tracer 1μM
  NanoBRET Fold Response: 0.93

## COc1ccccc1N1CCN(CCCCN2C(=O)c3ccc(CNC(=O)CCOCCOCCOCCOCCNC(=O)CCc4ccc5n4[B-](F)(F)[N+]4=C(c6ccc[nH]6)C=CC4=C5)cc3C2=O)CC1 [NAN-190-2-NB590]
ADRB3, tracer 0.1μM
  NanoBRET Fold Response: 0.98

## COc1ccccc1N1CCN(CCCCN2C(=O)c3ccc(CNC(=O)CCOCCNC(=O)c4ccc(CNC(=O)CCc5ccc6n5[B-](F)(F)[N+]5=C(c7ccc[nH]7)C=CC5=C6)cc4)cc3C2=O)CC1 [NAN-190-3-NB590]
ADRB3, tracer 0.1μM
  NanoBRET Fold Response: 1.03
ADRB3, tracer 1μM
  NanoBRET Fold Response: 0.92

## O=C(CCc1ccc2n1[B-](F)(F)[N+]1=C(c3ccc[nH]3)C=CC1=C2)NCc1ccc(C(=O)NCCOCCC(=O)N[C@@H]2CC[C@@]3(O)[C@H]4Cc5ccc(O)c6c5[C@@]3(CCN4CC3CC3)[C@H]2O6)cc1 [Naltrexone-3-NB590]
ADRB3, tracer 0.1μM
  NanoBRET Fold Response: 0.99
ADRB3, tracer 1μM
  NanoBRET Fold Response: 1.02

## Cc1cc2c(s1)Nc1ccccc1N=C2N1CCN(CCCNC(=O)CCOCCOCCOCCOCCNC(=O)CCc2ccc3n2[B-](F)(F)[N+]2=C(c4ccc[nH]4)C=CC2=C3)CC1 [Olanzapine-a-2-NB590]
ADRB3, tracer 0.1μM
  NanoBRET Fold Response: 1.05
ADRB3, tracer 1μM
  NanoBRET Fold Response: 0.89

## O=C(CCc1ccc2n1[B-](F)(F)[N+]1=C(c3ccc[nH]3)C=CC1=C2)NCc1ccc(C(=O)NCCOCCOCCNCC(O)COc2cccc3ccccc23)cc1 (stereo not drawn) [Propranolol-3-NB590]
ADRB3, 0.1μM
  NanoBRET Fold Response: 1.47
ADRB3, 1μM
  NanoBRET Fold Response: 1.17

## O=C(CCc1ccc2n1[B-](F)(F)[N+]1=C(c3ccc[nH]3)C=CC1=C2)NCCOCCOCCNC(=O)OCCOCCN1CCN(C2=Nc3ccccc3Sc3ccccc32)CC1 [Quetiapine-a-2-NB590]
ADRB3, tracer 0.1μM
  NanoBRET Fold Response: 1.08
ADRB3, tracer 1μM
  NanoBRET Fold Response: 0.99

## Cc1nc2n(c(=O)c1CCN1CCC(c3noc4cc(F)ccc34)CC1)CCCC2OC(=O)NCCOCCOCCOCCOCCNC(=O)CCc1ccc2n1[B-](F)(F)[N+]1=C(c3ccc[nH]3)C=CC1=C2 (stereo not drawn) [Risperidone-2-NB590]
ADRB3, tracer 0.1μM
  NanoBRET Fold Response: 0.98
ADRB3, tracer 1μM
  NanoBRET Fold Response: 1.01

## CC(C)N(CC[C@H](c1ccccc1)c1cc(CCNC(=O)CCOCCOCCOCCOCCNC(=O)CCc2ccc3n2[B-](F)(F)[N+]2=C(c4ccc[nH]4)C=CC2=C3)ccc1O)C(C)C [Tolterodine-2-NB590]
ADRB3, tracer 0.1μM
  NanoBRET Fold Response: 0.97
ADRB3, tracer 1μM
  NanoBRET Fold Response: 0.97

## CC(C)N(CC[C@H](c1ccccc1)c1cc(CCNC(=O)c2ccc(CNC(=O)CCc3ccc4n3[B-](F)(F)[N+]3=C(c5ccc[nH]5)C=CC3=C4)cc2)ccc1O)C(C)C [Tolterodine-BZ-NB590]
ADRB3, tracer 0.1μM
  NanoBRET Fold Response: 0.93
ADRB3, tracer 1μM
  NanoBRET Fold Response: 0.99

## CCCn1c(=O)c2[nH]c(-c3ccc(OCC(=O)NCCNC(=O)CCOCCNC(=O)c4ccc(CNC(=O)CCc5ccc6n5[B-](F)(F)[N+]5=C(c7ccc[nH]7)C=CC5=C6)cc4)cc3)nc2n(CCC)c1=O [XAC-3-NB590]
ADRB3, tracer 0.1μM
  NanoBRET Fold Response: 1.11
ADRB3, tracer 1μM
  NanoBRET Fold Response: 1.05
